# Source: article PMC11995216, “End-to-End Backbone Cyclization Enhances Passive Permeability of bRo5 Oligomeric Depsipeptides with Nonlinear Size Dependence” (ACS Medicinal Chemistry Letters, 2025)
# Where “and” joins values, the source holds several entries; their conditions need not be identical. Identical values can stand only once. Like-named read-outs stand apart in the source and are kept apart here.
# Legend:
# PAMPA [1] = conditions: UV detection
# PAMPA [2] = test system: PAMPA
# PAMPA [3] = test system: PAMPA; remark: listed apart in the source
# PAMPA [4] = test system: PAMPA; remark: listed apart in the source
# PAMPA [5] = test system: PAMPA; remark: listed apart in the source
# PAMPA [6] = conditions: calculated using Supplement Equation 1, UV detection
# [7] = PAMPA, permeability assay across an artificial membrane; conditions: for Acceptor Concentration, Ave: after incubation
# [8] = Acceptor Concentration (uM) – ELSD Detection / [row 1]
# [9] = Acceptor Concentration (uM) – ELSD Detection / [row 2]
# [10] = Acceptor Concentration (uM) – ELSD Detection / [row 3]
# [11] = Acceptor Concentration (uM) – ELSD Detection / [row 4]
# [12] = Acceptor Concentration (uM) – ELSD Detection / [row 5]
# [13] = Acceptor Concentration (uM) – ELSD Detection / [row 6]
# [14] = Acceptor Concentration (uM) – ELSD Detection / [row 7]
# [15] = Acceptor Concentration (uM) – ELSD Detection / [row 8]
# [16] = Acceptor Concentration (uM) – ELSD Detection / [row 9]
# [17] = Acceptor Concentration (uM) – ELSD Detection / [row 10]
# [18] = Acceptor Concentration (uM) – UV Detection / [row 1]
# [19] = Acceptor Concentration (uM) – UV Detection / [row 2]
# [20] = Acceptor Concentration (uM) – UV Detection / [row 4]
# [21] = Acceptor Concentration (uM) – UV Detection / [row 5]
# [22] = Acceptor Concentration (uM) – UV Detection / [row 6]
# [23] = Acceptor Concentration (uM) – UV Detection / [row 7]
# [24] = Acceptor Concentration (uM) – UV Detection / [row 8]
# [25] = Acceptor Concentration (uM) – UV Detection / [row 9]
# [26] = Acceptor Concentration (uM) – UV Detection / [row 10]
# [27] = Papp (x 10^-6 cm/s) – ELSD Detection / [row 2], ELSD Detection
# [28] = Papp (x 10^-6 cm/s) – ELSD Detection / [row 3], ELSD Detection
# [29] = Papp (x 10^-6 cm/s) – ELSD Detection / [row 4], ELSD Detection
# [30] = Papp (x 10^-6 cm/s) – ELSD Detection / [row 5], ELSD Detection
# [31] = Papp (x 10^-6 cm/s) – ELSD Detection / [row 6], ELSD Detection
# [32] = Papp (x 10^-6 cm/s) – ELSD Detection / [row 7], ELSD Detection
# [33] = Papp (x 10^-6 cm/s) – ELSD Detection / [row 8], ELSD Detection
# [34] = Papp (x 10^-6 cm/s) – ELSD Detection / [row 9], ELSD Detection
# [35] = Papp (x 10^-6 cm/s) – ELSD Detection / [row 10], ELSD Detection
# [36] = Papp (x 10^-6 cm/s) – UV Detection / [row 1], UV Detection
# [37] = Papp (x 10^-6 cm/s) – UV Detection / [row 2], UV Detection
# [38] = Papp (x 10^-6 cm/s) – UV Detection / [row 3], UV Detection
# [39] = Papp (x 10^-6 cm/s) – UV Detection / [row 4], UV Detection
# [40] = Papp (x 10^-6 cm/s) – UV Detection / [row 6], UV Detection
# [41] = Papp (x 10^-6 cm/s) – UV Detection / [row 7], UV Detection
# [42] = Papp (x 10^-6 cm/s) – UV Detection / [row 8], UV Detection
# [43] = Papp (x 10^-6 cm/s) – UV Detection / [row 9], UV Detection
# [44] = Papp (x 10^-6 cm/s) – UV Detection / [row 10], UV Detection
compound,measurement,setting,value
CCCCC[C@@H]1OC(=O)[C@@H](C)N(C)C(=O)[C@H](CCCCC)OC(=O)[C@@H](C)N(C)C(=O)[C@H](CCCCC)OC(=O)[C@@H](C)N(C)C(=O)[C@H](CCCCC)OC(=O)[C@@H](C)N(C)C(=O)[C@H](CCCCC)OC(=O)[C@@H](C)N(C)C1=O [Compound C1.5],% recovery,"PAMPA [1]; Well 2 / %R, Well 2",86% and 90%
same,% recovery,"PAMPA [1]; Well 3 / %R, Well 3",93% and 88%
same,% recovery,"PAMPA [1]; Well 5 / %R, Well 5",88% and 87%
same,Acceptor Concentration,PAMPA [2]; [8],67.5 µM
same,Acceptor Concentration,PAMPA [2]; [9],63.9 µM
same,Acceptor Concentration,PAMPA [2]; [10],64.8 µM
same,Acceptor Concentration,PAMPA [2]; [11],62.3 µM
same,Acceptor Concentration,PAMPA [2]; [12],65.1 µM
same,Acceptor Concentration,PAMPA [2]; [13],65 µM
same,Acceptor Concentration,PAMPA [2]; [14],68.5 µM
same,Acceptor Concentration,PAMPA [2]; [15],67.7 µM
same,Acceptor Concentration,PAMPA [2]; [16],61.3 µM
same,Acceptor Concentration,PAMPA [2]; [17],66.1 µM
same,Acceptor Concentration,PAMPA [2]; [18],66.6 µM
same,Acceptor Concentration,PAMPA [2]; [19],60.4 µM
same,Acceptor Concentration,PAMPA [2]; [20],56.7 µM
same,Acceptor Concentration,PAMPA [2]; [21],61.9 µM
same,Acceptor Concentration,PAMPA [2]; [22],71.3 µM
same,Acceptor Concentration,PAMPA [2]; [23],64.8 µM
same,Acceptor Concentration,PAMPA [2]; [24],71.7 µM
same,Acceptor Concentration,PAMPA [2]; [25],73.6 µM
same,Acceptor Concentration,PAMPA [2]; [26],71.6 µM
same,acceptor concentration after incubation,PAMPA [3]; Well 5 / [acc],61.8 µM
same,donor concentration after incubation,PAMPA [4]; Well 1 / [donor],379 µM and 372 µM
same,donor concentration after incubation,PAMPA [4]; Well 2 / [donor],370 µM and 384 µM
same,donor concentration after incubation,PAMPA [4]; Well 3 / [donor],400 µM and 367 µM
same,donor concentration after incubation,PAMPA [4]; Well 4 / [donor],389 µM and 372 µM
same,donor concentration after incubation,PAMPA [4]; Well 5 / [donor],376 µM and 362 µM
same,Papp,PAMPA [5]; [27],2.93 ×10⁻⁶ cm/s
same,Papp,PAMPA [5]; [28],2.62 ×10⁻⁶ cm/s
same,Papp,PAMPA [5]; [29],2.78 ×10⁻⁶ cm/s
same,Papp,PAMPA [5]; [30],3.09 ×10⁻⁶ cm/s
same,Papp,PAMPA [5]; [31],2.8 ×10⁻⁶ cm/s
same,Papp,PAMPA [5]; [32],3.15 ×10⁻⁶ cm/s
same,Papp,PAMPA [5]; [33],2.83 ×10⁻⁶ cm/s
same,Papp,PAMPA [5]; [34],2.67 ×10⁻⁶ cm/s
same,Papp,PAMPA [5]; [35],3.08 ×10⁻⁶ cm/s
same,Papp,PAMPA [5]; [36],3.3 ×10⁻⁶ cm/s
same,Papp,PAMPA [5]; [37],3.13 ×10⁻⁶ cm/s
same,Papp,PAMPA [5]; [38],3.08 ×10⁻⁶ cm/s
same,Papp,PAMPA [5]; [39],2.85 ×10⁻⁶ cm/s
same,Papp,"PAMPA [5]; Papp (x 10^-6 cm/s) – UV Detection / [row 5], UV Detection",3.14 ×10⁻⁶ cm/s
same,Papp,PAMPA [5]; [40],3.54 ×10⁻⁶ cm/s
same,Papp,PAMPA [5]; [41],3.19 ×10⁻⁶ cm/s
same,Papp,PAMPA [5]; [42],3.6 ×10⁻⁶ cm/s
same,Papp,PAMPA [5]; [43],3.64 ×10⁻⁶ cm/s
same,Papp,PAMPA [5]; [44],3.64 ×10⁻⁶ cm/s
same,%T,"PAMPA [6]; Well 1 / %T, Well 1",0.44% and 0.46%
same,%T,"PAMPA [6]; Well 2 / %T, Well 2",0.42% and 0.43%
same,%T,"PAMPA [6]; Well 3 / %T, Well 3",0.42% and 0.47%
same,%T,"PAMPA [6]; Well 4 / %T, Well 4",0.39% and 0.47%
same,%T,"PAMPA [6]; Well 5 / %T, Well 5",0.42% and 0.47%
CCCCC[C@@H]1OC(=O)[C@@H](C)N(C)C(=O)[C@H](CCCCC)OC(=O)[C@@H](C)N(C)C(=O)[C@H](CCCCC)OC(=O)[C@@H](C)N(C)C(=O)[C@H](CCCCC)OC(=O)[C@@H](C)N(C)C(=O)[C@H](CCCCC)OC(=O)[C@@H](C)N(C)C(=O)[C@H](CCCCC)OC(=O)[C@@H](C)N(C)C1=O [Compound C1.6],Diffusion (%),"[7]; PAMPA percent diffusion, C0 500 uM",6.78% and 7% and 6.8 ± 1.7%
same,Recovery (%),"[7]; PAMPA, (acceptor + donor)/total analyte, C0 500 uM",90%
same,Papp at 500 uM,"[7]; PAMPA, Ave, ELSD detection, C0 500 uM",1.9 ×10⁻⁶ cm/s
same,Papp at 500 uM,"[7]; PAMPA, ratio-based method, mean ± SD, C0 500 uM, UV detection",2 ± 0.23 ×10⁻⁶ cm/s
same,recovery at 500 uM,"[7]; PAMPA, Recovery (%), PAMPA, (acceptor + donor)/total analyte, C0 500 uM",89.7%
same,"Acceptor Concentration, Ave","[7]; PAMPA, ELSD detection, C0 500 uM",33.9 µM
same,"Acceptor Concentration, Ave","[7]; PAMPA, UV detection, C0 500 uM",39.95 µM
same,Δ % diffusion,[7]; increase: difference between percent diffusion of macrocycle vs linear counterpart,↑2%
same,% recovery,"PAMPA [1]; Well 1 / %R, Well 1",89% and 86%
same,% recovery,"PAMPA [1]; Well 2 / %R, Well 2",88% and 97%
same,% recovery,"PAMPA [1]; Well 3 / %R, Well 3",80% and 98%
same,% recovery,"PAMPA [1]; Well 4 / %R, Well 4",82% and 97%
same,% recovery,"PAMPA [1]; Well 5 / %R, Well 5",89% and 91%
same,Acceptor Concentration,PAMPA [2]; [8],27.2 µM
same,Acceptor Concentration,PAMPA [2]; [9],30 µM
same,Acceptor Concentration,PAMPA [2]; [10],25.6 µM
same,Acceptor Concentration,PAMPA [2]; [11],29.3 µM
same,Acceptor Concentration,PAMPA [2]; [12],27.1 µM
same,Acceptor Concentration,PAMPA [2]; [13],45.6 µM
same,Acceptor Concentration,PAMPA [2]; [14],39.3 µM
same,Acceptor Concentration,PAMPA [2]; [15],42.2 µM
same,Acceptor Concentration,PAMPA [2]; [16],25.8 µM
same,Acceptor Concentration,PAMPA [2]; [17],46.7 µM
same,Acceptor Concentration,PAMPA [2]; [18],38.6 µM
same,Acceptor Concentration,PAMPA [2]; [19],37.6 µM
same,Acceptor Concentration,PAMPA [2]; Acceptor Concentration (uM) – UV Detection / [row 3],33.9 µM
same,Acceptor Concentration,PAMPA [2]; [20],31.6 µM
same,Acceptor Concentration,PAMPA [2]; [21],37 µM
same,Acceptor Concentration,PAMPA [2]; [22],51.1 µM
same,Acceptor Concentration,PAMPA [2]; [23],41.4 µM
same,Acceptor Concentration,PAMPA [2]; [24],41.9 µM
same,Acceptor Concentration,PAMPA [2]; [25],49 µM
same,Acceptor Concentration,PAMPA [2]; [26],37.4 µM
same,acceptor concentration after incubation,PAMPA [3]; Well 1 / [acc],38.6 µM and 51.1 µM
same,acceptor concentration after incubation,PAMPA [3]; Well 2 / [acc],37.6 µM and 41.4 µM
same,acceptor concentration after incubation,PAMPA [3]; Well 3 / [acc],41.9 µM
same,acceptor concentration after incubation,PAMPA [3]; Well 4 / [acc],31.6 µM and 49.1 µM
same,acceptor concentration after incubation,PAMPA [3]; Well 5 / [acc],37.4 µM
same,donor concentration after incubation,PAMPA [4]; Well 1 / [donor],407 µM and 377 µM
same,donor concentration after incubation,PAMPA [4]; Well 2 / [donor],404 µM and 445 µM
same,donor concentration after incubation,PAMPA [4]; Well 3 / [donor],368 µM and 446 µM
same,donor concentration after incubation,PAMPA [4]; Well 4 / [donor],379 µM and 438 µM
same,donor concentration after incubation,PAMPA [4]; Well 5 / [donor],406 µM and 417 µM
same,Papp,PAMPA [5]; [27],1.94 ×10⁻⁶ cm/s
same,Papp,PAMPA [5]; [28],1.99 ×10⁻⁶ cm/s
same,Papp,PAMPA [5]; [29],1.87 ×10⁻⁶ cm/s
same,Papp,PAMPA [5]; [30],1.89 ×10⁻⁶ cm/s
same,Papp,PAMPA [5]; [31],1.93 ×10⁻⁶ cm/s
same,Papp,PAMPA [5]; [32],1.88 ×10⁻⁶ cm/s
same,Papp,PAMPA [5]; [33],1.91 ×10⁻⁶ cm/s
same,Papp,PAMPA [5]; [34],1.8 ×10⁻⁶ cm/s
same,Papp,PAMPA [5]; [35],1.92 ×10⁻⁶ cm/s
same,Papp,PAMPA [5]; [36],1.95 ×10⁻⁶ cm/s
same,Papp,PAMPA [5]; [37],1.93 ×10⁻⁶ cm/s
same,Papp,PAMPA [5]; [38],1.95 ×10⁻⁶ cm/s
same,Papp,PAMPA [5]; [39],1.81 ×10⁻⁶ cm/s
same,Papp,PAMPA [5]; [40],2.59 ×10⁻⁶ cm/s
same,Papp,PAMPA [5]; [41],1.89 ×10⁻⁶ cm/s
same,Papp,PAMPA [5]; [42],1.91 ×10⁻⁶ cm/s
same,Papp,PAMPA [5]; [43],2.19 ×10⁻⁶ cm/s
same,Papp,PAMPA [5]; [44],1.87 ×10⁻⁶ cm/s
same,%T,"PAMPA [6]; Well 1 / %T, Well 1",0.63% and 0.58%
same,%T,"PAMPA [6]; Well 2 / %T, Well 2",0.65% and 0.63%
same,%T,"PAMPA [6]; Well 3 / %T, Well 3",0.63% and 0.59%
same,%T,"PAMPA [6]; Well 4 / %T, Well 4",0.66% and 0.6%
same,%T,"PAMPA [6]; Well 5 / %T, Well 5",0.62% and 0.63%
